The results in this text go back to patent publication US8445522B2, “Substituted 2-(4-pyridyl)benzoxazoles, and compositions thereof, for use in arthropod pest control” (Sumitomo Chemical Company, Limited, priority 2009, dated 2013).

A value given as a limit tells only on which side of the number the result lay.

Format in all cases: in vivo
In assay [1] the test system is cotton aphids. Put plainly: Test Example 2: plant foot irrigation of cucumber seedling in urethane mat, cotton aphids inoculated one day after treatment. Conditions: 168 h, read-out: Control value. An outline of the steps:
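Cucumber seedlings at second true-leaf stage in urethane mat were foot-irrigated with 500 ppm active ingredient dilution. Leaves were inoculated with 30 cotton aphids (all stages) one day after treatment. Survivors counted seven days later, and control value (%) was calculated against the non-treated section using pre- and post-treatment insect counts.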

In assay [2] the test system is cotton aphids. As to the kind of experiment: Test Example 3: plant foot irrigation of cucumber seedling in plastic cup, cotton aphids inoculated after seven days. Conditions: 144 h, read-out: Control value. Here is the method: The formulations were diluted with water so that the concentration of the active ingredient became 500 ppm and thus test diluents were prepared. On the other hand, a plant foot of cucumber seedling (second true leaf development stage) planted in a plastic cup was irrigated with any one of diluents (5 ml). The seedling was kept in a green house of 25° C. for seven days. The cucumber leaves were inoculated with 30 cotton aphids (all stages) and kept in the green house for further six days. Thereafter, the number of survived cotton aphids parasitic on the cucumber leaves was counted, and the control value was calculated by the following equation. Control value(%)={1−(Cb×Tai)/(Cai×Tb)}×100 wherein each character represents the following meaning: Cb: number of insects in non-treated section before treatment Cai: number of insects in non-treated section during observation Tb: number of insects in treated section before treatment Tai: number of insects in treated section during observation

The subject of assay [3] is cotton aphids (Aphis gossypii Glover). Put plainly: Test Example 1: test diluent scattered on cucumber seedling inoculated with cotton aphids. Conditions: 120 h, read-out: Control value. An outline of the steps:
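Cucumber seedlings at second true leaf stage, infested with about 30 cotton aphids one day before, were sprayed with 10 ml of diluent at 500 ppm active ingredient. Survivors counted 5 days later; control value (%) from treated versus untreated counts before and after treatment.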

Assay [4] deals with rice brown planthopper. Put plainly: Test Example 6: plant foot irrigation of rice plant seedling, rice brown planthopper released after seven days. Conditions: Nilaparvata lugens, 144 h, read-out: Control value. An outline of the steps: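 Two-week-old rice seedlings (second-leaf stage) had the plant foot irrigated with 5 ml of 500 ppm active ingredient, kept 7 days at 25° C, then infested with thirty first-instar brown planthoppers. Survivors counted after six more days at 25° C; control value (%) computed by Henderson–Tilton-type formula versus untreated.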

For assay [5], the system named is halymorpha halys. Put plainly: Test Example 7: treated tissue paper with budding soybeans, halymorpha halys mortality. To be noted: 168 h. On the procedure:
Formulations were prepared by the method described in Formulation Example 1 with respect to each of the active compound 13, the active compound 15, the active compound 18, the active compound 35, the active compound 37, the active compound 44, the active compound 65, the active compound 68 and the active compound 82. The formulations were diluted with water so that the concentration of the active ingredient became 100 ppm and thus test diluents were prepared.
On the other hand, a tissue paper placed in an aluminum cup was irrigated with any one of the above-mentioned diluents (5 ml). The tissue paper was placed in a polyethylene cup together with three budding soybeans. In the polyethylene cup, ten halymorpha halys were released, and the polyethylene cup was lidded by a polyethylene lid. Seven days after the releasing of the insects, the number of survived insects was counted, and the mortality was calculated by the following equation. Mortality(%)=(number of dead insects/number of insects to be tested)×100

For assay [6], the system named is tobacco whitefly. Put plainly: Test Example 4: test diluent scattered on tomato seedling with hatched tobacco whitefly larvae. To be noted: 168 h, read-out: Control value. The method in brief: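 Tomato seedlings carried whitefly larvae hatched from a 24 h egg lay and were sprayed with 500 ppm active ingredient. After seven days at 25° C, surviving larvae were counted. Control value (%) was calculated against untreated plants, corrected for pre-treatment counts.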

In assay [7] the test system is cotton aphids. As to the kind of experiment: Test Example 8 and Comparative Test Example: 200 ppm diluent scattered on cucumber seedling inoculated with cotton aphids. To be noted: 200 ppm active ingredient, 10 ml scattered on cucumber seedling, counted five days after scattering.

Take `COc1cnccc1-c1nc2cc(C(F)(F)F)ccc2o1` [active compound 37, 2-(3-methoxypyridin-4-yl)-5-(trifluoromethyl)benzoxazole]: the pest or weed control at 500 ppm in assay [1], in assay [2], in assay [3], in assay [4] and in assay [6] was no less than 90% in each case. In assay [5], the mortality at 100 ppm is no less than 80%.
For `c1ccc2oc(-c3ccncc3)nc2c1` [comparative compound (B)], the Control value entry in assay [7] is reported as “less than 30%”.
